# From PubChem BioAssay (NCI)
#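 Step 1: Grow cells in 96-well plates. Step 2: Expose to compound for 48 hours at 5 concentrations. Step 3: Interpolate endpoints linearly; if unreached, use highest concentration. At the TGI there is no net growth.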
# Experiments:
# Assay in all cases: NCI anticancer screen, dose series, 48 h
# 786-0 renal = test system: 786-0 renal
# A549 NSCLC = test system: A549 NSCLC
# ACHN renal = test system: ACHN renal
# BT-549 breast = test system: BT-549 breast
# CAKI-1 renal = test system: CAKI-1 renal
# CCRF-CEM leukemia = test system: CCRF-CEM leukemia
# COLO 205 colon = test system: COLO 205 colon
# DU-145 prostate = test system: DU-145 prostate
# EKVX NSCLC = test system: EKVX NSCLC
# HCT-116 colon = test system: HCT-116 colon
# HCT-15 colon = test system: HCT-15 colon
# HL-60(TB) leukemia = test system: HL-60(TB) leukemia
# HOP-62 NSCLC = test system: HOP-62 NSCLC
# HOP-92 NSCLC = test system: HOP-92 NSCLC
# HS 578T breast = test system: HS 578T breast
# HT29 colon = test system: HT29 colon
# IGROV1 ovarian = test system: IGROV1 ovarian
# K-562 leukemia = test system: K-562 leukemia
# KM12 colon = test system: KM12 colon
# LOX IMVI melanoma = test system: LOX IMVI melanoma
# MALME-3M melanoma = test system: MALME-3M melanoma
# MCF7 breast = test system: MCF7 breast
# MDA-MB-231 breast = test system: MDA-MB-231 breast
# MDA-MB-435 = test system: MDA-MB-435
# MDA-N = test system: MDA-N
# MOLT-4 leukemia = test system: MOLT-4 leukemia
# NCI-H226 lung = test system: NCI-H226 lung
# NCI-H23 lung = test system: NCI-H23 lung
# NCI-H460 lung = test system: NCI-H460 lung
# NCI-H522 lung = test system: NCI-H522 lung
# NCI/ADR-RES ovarian = test system: NCI/ADR-RES ovarian
# OVCAR-3 ovarian = test system: OVCAR-3 ovarian
# OVCAR-4 ovarian = test system: OVCAR-4 ovarian
# OVCAR-5 ovarian = test system: OVCAR-5 ovarian
# OVCAR-8 ovarian = test system: OVCAR-8 ovarian
# PC-3 prostate = test system: PC-3 prostate
# RPMI-8226 leukemia = test system: RPMI-8226 leukemia
# RXF 393 renal = test system: RXF 393 renal
# SF-268 CNS = test system: SF-268 CNS
# SF-295 CNS = test system: SF-295 CNS
# SF-539 CNS = test system: SF-539 CNS
# SK-MEL-2 melanoma = test system: SK-MEL-2 melanoma
# SK-MEL-5 melanoma = test system: SK-MEL-5 melanoma
# SK-OV-3 ovarian = test system: SK-OV-3 ovarian
# SN12C renal = test system: SN12C renal
# SNB-19 CNS = test system: SNB-19 CNS
# SNB-75 CNS = test system: SNB-75 CNS
# SR leukemia = test system: SR leukemia
# SW-620 colon = test system: SW-620 colon
# T-47D breast = test system: T-47D breast
# TK-10 renal = test system: TK-10 renal
# U251 CNS = test system: U251 CNS
# UACC-257 melanoma = test system: UACC-257 melanoma
# UACC-62 melanoma = test system: UACC-62 melanoma
# UO-31 renal = test system: UO-31 renal
# A498 renal = test system: A498 renal
# HCC-2998 colon = test system: HCC-2998 colon
# M14 melanoma = test system: M14 melanoma
# SK-MEL-28 melanoma = test system: SK-MEL-28 melanoma
smiles,measurement,setting,value
COc1ccc(NC(=O)CC(=O)NN)cc1,TGI,786-0 renal,> 100 µM
same,TGI,A549 NSCLC,> 100 µM
same,TGI,ACHN renal,> 100 µM
same,TGI,BT-549 breast,> 100 µM
same,TGI,CAKI-1 renal,> 100 µM
same,TGI,CCRF-CEM leukemia,> 100 µM
same,TGI,COLO 205 colon,> 100 µM
same,TGI,DU-145 prostate,> 100 µM
same,TGI,EKVX NSCLC,> 100 µM
same,TGI,HCT-116 colon,> 100 µM
same,TGI,HCT-15 colon,> 100 µM
same,TGI,HL-60(TB) leukemia,> 100 µM
same,TGI,HOP-62 NSCLC,> 100 µM
same,TGI,HOP-92 NSCLC,> 100 µM
same,TGI,HS 578T breast,> 100 µM
same,TGI,HT29 colon,> 100 µM
same,TGI,IGROV1 ovarian,> 100 µM
same,TGI,K-562 leukemia,> 100 µM
same,TGI,KM12 colon,> 100 µM
same,TGI,LOX IMVI melanoma,> 100 µM
same,TGI,MALME-3M melanoma,> 100 µM
same,TGI,MCF7 breast,> 100 µM
same,TGI,MDA-MB-231 breast,> 100 µM
same,TGI,MDA-MB-435,> 100 µM
same,TGI,MDA-N,> 100 µM
same,TGI,MOLT-4 leukemia,> 100 µM
same,TGI,NCI-H226 lung,> 100 µM
same,TGI,NCI-H23 lung,> 100 µM
same,TGI,NCI-H460 lung,> 100 µM
same,TGI,NCI-H522 lung,> 100 µM
same,TGI,NCI/ADR-RES ovarian,> 100 µM
same,TGI,OVCAR-3 ovarian,> 100 µM
same,TGI,OVCAR-4 ovarian,> 100 µM
same,TGI,OVCAR-5 ovarian,> 100 µM
same,TGI,OVCAR-8 ovarian,> 100 µM
same,TGI,PC-3 prostate,> 100 µM
same,TGI,RPMI-8226 leukemia,> 100 µM
same,TGI,RXF 393 renal,> 100 µM
same,TGI,SF-268 CNS,> 100 µM
same,TGI,SF-295 CNS,> 100 µM
same,TGI,SF-539 CNS,> 100 µM
same,TGI,SK-MEL-2 melanoma,> 100 µM
same,TGI,SK-MEL-5 melanoma,> 100 µM
same,TGI,SK-OV-3 ovarian,> 100 µM
same,TGI,SN12C renal,> 100 µM
same,TGI,SNB-19 CNS,> 100 µM
same,TGI,SNB-75 CNS,> 100 µM
same,TGI,SR leukemia,> 100 µM
same,TGI,SW-620 colon,> 100 µM
same,TGI,T-47D breast,> 100 µM
same,TGI,TK-10 renal,> 100 µM
same,TGI,U251 CNS,> 100 µM
same,TGI,UACC-257 melanoma,> 100 µM
same,TGI,UACC-62 melanoma,> 100 µM
same,TGI,UO-31 renal,> 100 µM
NC(=O)c1nnsc1N/N=C/c1ccc([N+](=O)[O-])cc1,TGI,786-0 renal,> 100 µM
same,TGI,A498 renal,> 100 µM
same,TGI,A549 NSCLC,> 100 µM
same,TGI,ACHN renal,> 100 µM
same,TGI,BT-549 breast,88.6 µM
same,TGI,CAKI-1 renal,> 100 µM
same,TGI,CCRF-CEM leukemia,> 100 µM
same,TGI,COLO 205 colon,> 100 µM
same,TGI,DU-145 prostate,> 100 µM
same,TGI,EKVX NSCLC,> 100 µM
same,TGI,HCC-2998 colon,> 100 µM
same,TGI,HCT-116 colon,> 100 µM
same,TGI,HCT-15 colon,> 100 µM
same,TGI,HL-60(TB) leukemia,> 100 µM
same,TGI,HOP-62 NSCLC,> 100 µM
same,TGI,HS 578T breast,> 100 µM
same,TGI,HT29 colon,> 100 µM
same,TGI,IGROV1 ovarian,> 100 µM
same,TGI,K-562 leukemia,> 100 µM
same,TGI,KM12 colon,> 100 µM
same,TGI,LOX IMVI melanoma,> 100 µM
same,TGI,M14 melanoma,> 100 µM
same,TGI,MALME-3M melanoma,> 100 µM
same,TGI,MCF7 breast,> 100 µM
same,TGI,MDA-MB-231 breast,> 100 µM
same,TGI,MDA-MB-435,> 100 µM
same,TGI,MDA-N,> 100 µM
same,TGI,MOLT-4 leukemia,> 100 µM
same,TGI,NCI-H226 lung,> 100 µM
same,TGI,NCI-H23 lung,> 100 µM
same,TGI,NCI-H460 lung,> 100 µM
same,TGI,NCI-H522 lung,> 100 µM
same,TGI,NCI/ADR-RES ovarian,> 100 µM
same,TGI,OVCAR-3 ovarian,> 100 µM
same,TGI,OVCAR-4 ovarian,> 100 µM
same,TGI,OVCAR-5 ovarian,> 100 µM
same,TGI,OVCAR-8 ovarian,> 100 µM
same,TGI,PC-3 prostate,> 100 µM
same,TGI,RPMI-8226 leukemia,> 100 µM
same,TGI,RXF 393 renal,> 100 µM
same,TGI,SF-268 CNS,> 100 µM
same,TGI,SF-295 CNS,> 100 µM
same,TGI,SF-539 CNS,> 100 µM
same,TGI,SK-MEL-2 melanoma,> 100 µM
same,TGI,SK-MEL-28 melanoma,> 100 µM
same,TGI,SK-MEL-5 melanoma,> 100 µM
same,TGI,SK-OV-3 ovarian,> 100 µM
same,TGI,SN12C renal,> 100 µM
same,TGI,SNB-19 CNS,> 100 µM
same,TGI,SNB-75 CNS,> 100 µM
same,TGI,SR leukemia,> 100 µM
same,TGI,SW-620 colon,> 100 µM
same,TGI,T-47D breast,> 100 µM
same,TGI,U251 CNS,> 100 µM
same,TGI,UACC-257 melanoma,> 100 µM
same,TGI,UACC-62 melanoma,> 100 µM
same,TGI,UO-31 renal,> 100 µM
O=C(O)CCn1cnc2c(=S)nc[nH]c21,TGI,786-0 renal,> 100 µM
same,TGI,A498 renal,> 100 µM
same,TGI,A549 NSCLC,> 100 µM
same,TGI,ACHN renal,> 100 µM
same,TGI,BT-549 breast,> 100 µM
same,TGI,CAKI-1 renal,> 100 µM
same,TGI,CCRF-CEM leukemia,> 100 µM
same,TGI,COLO 205 colon,> 100 µM
same,TGI,DU-145 prostate,> 100 µM
same,TGI,EKVX NSCLC,> 100 µM
same,TGI,HCC-2998 colon,> 100 µM
same,TGI,HCT-116 colon,> 100 µM
same,TGI,HCT-15 colon,> 100 µM
same,TGI,HL-60(TB) leukemia,> 100 µM
same,TGI,HOP-62 NSCLC,> 100 µM
same,TGI,HS 578T breast,> 100 µM
same,TGI,HT29 colon,> 100 µM
same,TGI,IGROV1 ovarian,> 100 µM
same,TGI,K-562 leukemia,> 100 µM
same,TGI,KM12 colon,> 100 µM
same,TGI,LOX IMVI melanoma,> 100 µM
same,TGI,M14 melanoma,> 100 µM
same,TGI,MALME-3M melanoma,> 100 µM
same,TGI,MCF7 breast,> 100 µM
same,TGI,MDA-MB-231 breast,> 100 µM
same,TGI,MDA-MB-435,> 100 µM
same,TGI,MDA-N,> 100 µM
same,TGI,MOLT-4 leukemia,> 100 µM
same,TGI,NCI-H226 lung,> 100 µM
same,TGI,NCI-H23 lung,> 100 µM
same,TGI,NCI-H460 lung,> 100 µM
same,TGI,NCI-H522 lung,> 100 µM
same,TGI,NCI/ADR-RES ovarian,> 100 µM
same,TGI,OVCAR-3 ovarian,> 100 µM
same,TGI,OVCAR-4 ovarian,> 100 µM
same,TGI,OVCAR-5 ovarian,> 100 µM
same,TGI,OVCAR-8 ovarian,> 100 µM
same,TGI,PC-3 prostate,> 100 µM
same,TGI,RPMI-8226 leukemia,> 100 µM
same,TGI,RXF 393 renal,> 100 µM
same,TGI,SF-268 CNS,> 100 µM
same,TGI,SF-295 CNS,> 100 µM
same,TGI,SF-539 CNS,> 100 µM
same,TGI,SK-MEL-2 melanoma,> 100 µM
same,TGI,SK-MEL-28 melanoma,> 100 µM
same,TGI,SK-MEL-5 melanoma,> 100 µM
same,TGI,SK-OV-3 ovarian,> 100 µM
same,TGI,SN12C renal,> 100 µM
same,TGI,SNB-19 CNS,> 100 µM
same,TGI,SNB-75 CNS,> 100 µM
same,TGI,SR leukemia,> 100 µM
same,TGI,SW-620 colon,> 100 µM
same,TGI,T-47D breast,> 100 µM
same,TGI,TK-10 renal,> 100 µM
same,TGI,U251 CNS,> 100 µM
same,TGI,UACC-257 melanoma,> 100 µM
same,TGI,UACC-62 melanoma,> 100 µM
same,TGI,UO-31 renal,> 100 µM
